According to the supplement of paper PMC10331698:
± gives the standard deviation of the averaged measurements.

Assays:
Assay in all cases: level (log10 ratio to DMSO vehicle control); higher = higher biomarker level / cell amount than vehicle control
Conditions in all cases: in DMSO
[1] = compound: O=S(=O)(O)C(F)(F)C(F)(F)C(F)(F)C(F)(F)C(F)(F)C(F)(F)F [Perfluorohexanesulfonic acid]
Method: (§1)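 BioMAP Diversity Plus panel of 12 human primary cell co-culture systems (3C, 4H, LPS, SAg, BT, BF4T, BE3C, CASM3C, HDF3CGF, KF3CT, MyoF, Mphg). Compounds were added 1 h before stimulation and left for 24 h (MyoF 48 h; BT 72 h for soluble read-outs or 6 d for IgG). Biomarkers were read by ELISA, cytotoxicity by SRB, PBMC viability and proliferation by Alamar Blue. Each well value was divided by the mean of 8 DMSO control wells on the same plate and log10 transformed; duplicate blinded samples were tested at 4 concentrations.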

[2] = compound: NC(=O)C(F)(F)C(F)(F)F [Pentafluoropropionamide]
Method: as §1

[3] = compound: FC(F)(F)C(F)(F)C(F)(F)C(F)(F)C(F)(F)C(F)(F)I [Perfluoro-1-iodohexane]
Method: as §1

[4] = compound: O=C(O)C(F)(F)C(F)(F)C(F)(F)C(F)(F)C(F)(F)C(F)(F)C(F)(F)C(F)F [9-H-Perfluorononanoic acid]
Method: as §1

[5] = compound: C=CC(=O)OCC(F)(F)C(F)(F)C(F)(F)C(F)(F)C(F)(F)C(F)(F)C(F)(F)F [1H,1H-Perfluorooctyl acrylate]
Method: as §1

[6] = compound: O=C(O)C(F)(F)C(F)(F)C(F)(F)C(F)(F)F [Perfluoropentanoic acid]
Method: as §1

[7] = compound: C=CC(F)(F)C(F)(F)C(F)(F)C(F)(F)C(F)(F)C(F)(F)C(F)(F)C(F)(F)C=C [1,8-Divinylperfluorooctane]
Method: as §1

Test System | level (log10) ([1]; 6700 nM) | level (log10) ([1]; 20000 nM) | level (log10) ([1]; 60000 nM) | level (log10) ([2]; 6700 nM) | level (log10) ([2]; 20000 nM) | level (log10) ([2]; 60000 nM) | level (log10) ([3]; 6700 nM) | level (log10) ([3]; 20000 nM) | level (log10) ([3]; 60000 nM) | level (log10) ([4]; 6700 nM) | level (log10) ([4]; 20000 nM) | level (log10) ([4]; 60000 nM) | level (log10) ([5]; 6700 nM) | level (log10) ([5]; 20000 nM) | level (log10) ([5]; 60000 nM) | level (log10) ([6]; 6700 nM) | level (log10) ([6]; 20000 nM) | level (log10) ([6]; 60000 nM) | level (log10) ([7]; 6700 nM) | level (log10) ([7]; 20000 nM)
LPS:CD142/Tissue Factor | 0.0055 ± 0.023 | 0.001 ± 0.0028 | 0 ± 0.028 | 0.0095 ± 0.015 | -0.022 ± 0.034 | -0.0425 ± 0.046 | -0.018 ± 0.038 | 0.0045 ± 0.0021 | 0.0045 ± 0.011 | -0.03 ± 0.021 | -0.024 ± 0.011 | 0.0785 ± 0.039 | 0.0425 ± 0.018 | 0.051 ± 0.014 | 0.0525 ± 0.016 | 0.006 ± 0.0099 | -0.007 ± 0.051 | 0.031 ± 0.099 | -0.035 ± 0.035 | -0.043 ± 0.057
BF4T:CD54/ICAM-1 | 0.0045 ± 0.00071 | -0.005 ± 0.011 | -0.022 ± 0.0099 | -0.021 ± 0.018 | -0.007 ± 0.014 | -0.019 ± 0.017 | -0.004 ± 0.0057 | 0.0045 ± 0.013 | 0 ± 0.0057 | -0.0775 ± 0.0092 | -0.088 ± 0.0028 | -0.0795 ± 0.00071 | -0.0105 ± 0.005 | -0.0165 ± 0.0035 | -0.0295 ± 0.0092 | -0.0155 ± 0.0021 | -0.0135 ± 0.005 | 0.0015 ± 0.043 | -0.0115 ± 0.021 | -0.0095 ± 0.022
SAg:SRB | -0.019 ± 0.0085 | -0.018 ± 0.0042 | -0.033 ± 0.03 | -0.0005 ± 0.016 | -0.0055 ± 0.0092 | -0.01 ± 0.014 | -0.0075 ± 0.011 | -0.002 ± 0.0014 | -0.0045 ± 0.011 | -0.002 ± 0.025 | -0.003 ± 0.013 | -0.036 ± 0.0071 | -0.0005 ± 0.0035 | -0.002 ± 0.0028 | 0.0075 ± 0.0021 | -0.007 ± 0.0099 | -0.0035 ± 0.00071 | 0.0055 ± 0.015 | -0.0005 ± 0.0021 | 0.0135 ± 0.0021
LPS:CXCL8/IL-8 | -0.0005 ± 0.0021 | 0.0025 ± 0.0078 | 0.0675 ± 0.047 | -0.009 ± 0.013 | -0.0115 ± 0.00071 | 0.0285 ± 0.037 | -0.0045 ± 0.015 | 0.005 | 0.015 ± 0.017 | 0.046 ± 0.047 | 0.102 ± 0.021 | 0.17 ± 0.033 | 0.004 ± 0.0042 | 0.0185 ± 0.0064 | 0.013 ± 0.016 | -0.0075 ± 0.00071 | -0.0095 ± 0.022 | 0.0245 ± 0.052 | -0.0055 ± 0.005 | 0.0145 ± 0.0078
4H:CD62P/P-selectin | 0.008 ± 0.058 | 0.0555 ± 0.043 | 0.112 ± 0.066 | -0.023 ± 0.054 | -0.0265 ± 0.0078 | -0.0475 ± 0.03 | 0.034 ± 0.028 | -0.012 ± 0.11 | 0.0625 ± 0.14 | 0.033 ± 0.078 | 0.0825 ± 0.0035 | 0.149 ± 0.014 | 0.038 ± 0.05 | -0.0155 ± 0.018 | -0.047 ± 0.023 | -0.0025 ± 0.067 | -0.023 ± 0.03 | -0.0285 ± 0.043 | -0.009 ± 0.018 | -0.035 ± 0.064
BF4T:MMP-3 | 0.021 ± 0.042 | 0.0195 ± 0.035 | 0.0605 ± 0.053 | -0.024 ± 0.011 | -0.007 | -0.003 ± 0.033 | 0.004 ± 0.0057 | 0.017 | 0.0635 ± 0.035 | -0.0115 ± 0.03 | -0.0025 ± 0.00071 | 0.075 ± 0.0071 | -0.004 ± 0.0014 | 0.0205 ± 0.019 | 0.036 ± 0.0071 | -0.015 ± 0.011 | -0.0145 ± 0.0092 | -0.0045 ± 0.04 | 0.021 ± 0.016 | 0.0005 ± 0.005
3C:CD87/uPAR | -0.005 ± 0.027 | 0.0045 ± 0.011 | -0.0285 ± 0.013 | -0.052 ± 0.016 | -0.042 ± 0.038 | -0.049 ± 0.014 | -0.0125 ± 0.032 | 0.004 ± 0.0071 | 0.0285 ± 0.0035 | -0.013 ± 0.0042 | -0.0105 ± 0.023 | -0.029 ± 0.034 | -0.0055 ± 0.012 | -0.0075 ± 0.0064 | 0.004 | -0.003 ± 0.021 | -0.0045 ± 0.021 | -0.0105 ± 0.015 | -0.0065 ± 0.022 | 0.0105 ± 0.025
BF4T:tPA | -0.004 ± 0.023 | -0.0125 ± 0.013 | 0.022 ± 0.0057 | -0.013 ± 0.0028 | -0.014 ± 0.0042 | 0 ± 0.02 | 0.0015 ± 0.005 | -0.0065 ± 0.018 | 0.036 ± 0.047 | -0.094 ± 0.014 | -0.128 ± 0.012 | -0.122 ± 0.019 | -0.0045 ± 0.013 | 0.0025 ± 0.0021 | -0.0075 ± 0.025 | -0.0295 ± 0.005 | -0.0215 ± 0.029 | -0.009 ± 0.061 | -0.0015 ± 0.018 | 0.0125 ± 0.015
BF4T:IL-1alpha | -0.0055 ± 0.005 | -0.025 ± 0.0042 | 0.0095 ± 0.00071 | -0.0165 ± 0.0021 | -0.016 ± 0.021 | 0.0065 ± 0.021 | -0.0075 ± 0.005 | -0.0065 ± 0.012 | -0.004 ± 0.0057 | 0.0005 ± 0.00071 | -0.019 ± 0.0099 | 0.0055 ± 0.044 | -0.0075 ± 0.00071 | 0.0045 ± 0.0021 | -0.0125 ± 0.013 | -0.016 ± 0.0085 | -0.005 ± 0.0071 | 0.0155 ± 0.046 | -0.0175 ± 0.0021 | 0.01 ± 0.025
BE3C:CXCL10/IP-10 | -0.0035 ± 0.00071 | -0.01 ± 0.0071 | -0.0405 ± 0.016 | -0.008 ± 0.0085 | 0 ± 0.0028 | -0.0015 ± 0.0064 | 0.013 ± 0.018 | 0.0135 ± 0.0078 | 0.0355 ± 0.022 | -0.021 ± 0.0057 | -0.04 ± 0.0042 | -0.149 ± 0.04 | 0.0315 ± 0.015 | 0.0195 ± 0.005 | 0.0235 ± 0.023 | -0.0085 ± 0.016 | -0.013 ± 0.021 | 0.0005 ± 0.005 | 0.0075 ± 0.0021 | 0 ± 0.017
4H:VEGFR2 | -0.021 ± 0.037 | -0.0125 ± 0.052 | 0.03 ± 0.038 | 0.032 ± 0.014 | 0.034 ± 0.027 | 0.072 ± 0.031 | 0.0075 ± 0.0092 | 0.006 ± 0.02 | 0.004 ± 0.023 | 0.0105 ± 0.037 | 0.001 ± 0.027 | 0.051 ± 0.0099 | -0.0075 ± 0.0035 | 0.0045 ± 0.0064 | 0.0235 ± 0.019 | 0.0065 ± 0.056 | 0.0025 ± 0.013 | 0.008 ± 0.025 | -0.0065 ± 0.056 | 0.053 ± 0.0085
BE3C:CD87/uPAR | 0.0285 ± 0.00071 | 0.0015 ± 0.0035 | 0.035 ± 0.025 | 0.0115 ± 0.042 | -0.025 ± 0.0057 | -0.0145 ± 0.022 | 0.0165 ± 0.018 | 0.0035 ± 0.00071 | 0.0465 ± 0.026 | 0.0155 ± 0.035 | 0.0015 ± 0.0092 | 0.0325 ± 0.0021 | -0.0045 ± 0.022 | 0.0205 ± 0.026 | 0.0315 ± 0.029 | -0.0035 ± 0.063 | -0.0235 ± 0.026 | 0.024 ± 0.0014 | 0.0045 ± 0.021 | -0.029 ± 0.025
LPS:CD40 | 0.004 ± 0.018 | 0.011 ± 0.023 | -0.0045 ± 0.054 | -0.0315 ± 0.047 | -0.04 ± 0.013 | -0.025 ± 0.02 | 0.058 ± 0.0014 | 0.0375 ± 0.005 | -0.0135 ± 0.061 | -0.027 ± 0.023 | -0.033 ± 0.016 | -0.0655 ± 0.021 | 0.0745 ± 0.063 | 0.039 ± 0.071 | -0.0125 ± 0.097 | 0.0115 ± 0.011 | 0.0075 ± 0.022 | -0.0265 ± 0.013 | 0.0305 ± 0.018 | 0.0225 ± 0.0064
BE3C:CXCL9/MIG | 0.0035 ± 0.0092 | -0.001 ± 0.0028 | -0.007 ± 0.0028 | 0.004 ± 0.0028 | -0.0015 ± 0.011 | 0.0075 ± 0.0035 | 0.0085 ± 0.0035 | -0.002 ± 0.0071 | -0.0035 ± 0.018 | -0.0255 ± 0.005 | -0.0285 ± 0.005 | -0.02 ± 0.0099 | -0.002 ± 0.0085 | 0.0035 ± 0.016 | 0.0015 ± 0.0078 | -0.0035 ± 0.0092 | -0.012 ± 0.013 | 0.007 ± 0.018 | -0.001 ± 0.0014 | -0.005 ± 0.0028
